{"source": "paper PMC3524758", "about": "“Development and evaluation of a novel radioiodinated vesamicol analog as a sigma receptor imaging agent” (EJNMMI Research, 2012)", "key": {"[1]": {"assay": "Partition coefficient (1-octanol / 0.02-M phosphate buffer)", "assay_type": "physicochemical", "procedure": "The partition coefficient of (+)-^125I]IV-OH was measured as described previously."}, "[2]": {"test_system": "DU-145 prostate cancer cell lines", "assay": "Cellular uptake and washout experiments in vitro", "assay_type": "cell-based", "conditions": "DU-145 cells", "procedure": "Radiotracer uptake studies were performed in monolayer cultures of DU-145 prostate cancer cell lines, which were obtained from ATCC (Manassas, VA, USA). Cells were grown in cell culture dishes in RPMI 1640 medium with phenol red, 10% heat-inactivated fetal bovine serum (FBS), 100-μg/mL glutamine, 100-units/mL penicillin, and 100-μg/mL streptomycin at 37°C in a humidified atmosphere of 95% air and 5% carbon dioxide. Cells were plated on 6-well tissue culture plates (4 × 10^5 cells/well) for 24 h before the study and incubated at 37°C in the culture medium without FBS containing (+)-^125I]IV-OH or (+)-^125I]pIV (3.7 kBq/well), which was prepared by a method of a previous study for different time intervals (15, 30, 60, and 120 min). For the washout experiment, tumor cells exposed to a medium containing (+)-^125I]IV-OH or (+)-^125I]pIV for 60 min were washed with phosphate buffered saline (PBS) and incubated in fresh (nonradioactive) medium without FBS at 37°C for 15, 30, and 60 min. […] After incubation, cells were washed twice with ice-cold PBS and resolved by adding 0.5 mL of 1-M NaOH. The solutions were then collected and the radioactivity was determined with an auto well gamma counter (ARC-380; Aloka) and corrected for background radiation. The radioactivity of each sample was normalized for the protein level, which was determined using a Protein Assay Bicinchoninate Kit (Nacalai Tesque)."}, "[3]": {"assay": "Biodistribution in DU-145 tumor-bearing mice", "assay_type": "in vivo", "conditions": "i.v., mean (SD)", "procedure": "(+)-^131I]pIV was prepared using a method described previously. To produce tumors, approximately 5 × 10^6 of the prepared DU-145 cells was injected subcutaneously into the right dorsum of 4-week-old male BALB/c nude mice (15 to 19 g, Japan SLC, Inc.). Biodistribution experiments were performed at approximately 14- to 21-day post-inoculation, i.e., when tumors reached a palpable size. Groups of four mice were intravenously administered with 100 μL of a mixed solution of (+)-^125I]IV-OH (37 kBq) and (+)-^131I]pIV (37 kBq). At 10-min, 1-, 3-, and 24-h post-injections, the mice were killed. Tissues of interest were removed and weighed, and radioactivity counts were determined with an auto well gamma counter and corrected for background radiation. A window from 16 to 71 keV was used for measuring ^125I and one from 300 to 433 keV for ^131I. The crossover of ^125I activity into the ^131I channel was negligible. Correlation factors to eliminate any crossover of ^131I activity into ^125I were determined by measuring the ^131I standard in both windows."}, "[4]": {"assay": "Metabolite analysis in blood, tumor and other tissues (TLC)", "assay_type": "in vivo, mice", "conditions": "i.v., mean (SD) three samples", "procedure": "For metabolite analysis, the above-mentioned DU-145 tumor-bearing mice were intravenously administered with 100 μL of (+)-[^125I]IV-OH (3.7 MBq). At 10-min and 1-h post-injections, the mice were killed. Blood was collected and tissues of interest were removed. The blood was centrifuged at 1,000×g for 10 min at 4°C. After the plasma was collected, an equivalent volume of acetonitrile/water mixture (1:1) was added to the plasma. The mixture was centrifuged at 1,000×g for 10 min at 4°C. The tissues of interest (0.2 to 0.5 g) were homogenized in 1 mL of acetonitrile-water mixture (1:1). Each homogenized sample was centrifuged at 1,000×g for 10 min at 4°C. The supernatants were analyzed by TLC with a chloroform/methanol mixture (5:1) as a developing solvent. TLC plates were exposed to phosphor imaging plates (BAS IP SR 2025 E, Fujifilm, Tokyo, Japan) for 48 h. The exposed imaging plates were evaluated using an imaging scanner (BAS 5000 Bio-Imaging Analyzer, Fujifilm)."}}, "note": "Where “and” joins values, the source holds several entries; their conditions need not be identical. Equal entries are not always repeated. Marks after values point to notes of the source that are not given here.", "data": [{"smiles": "Oc1ccc(C2CCN(C3CCCCC3O)CC2)cc1[125I]", "note": "(single isomer, unassigned; (+)) [(+)-[^125I]IV-OH]", "values": [{"measurement": "log P", "setting": "[1]", "value": "1.13 ± 0.01"}, {"measurement": "time at which uptake was saturated", "setting": "[2]", "value": 30, "unit": "min"}, {"measurement": "accumulation in the presence of haloperidol", "setting": "[2]; haloperidol 10 μM in culture medium", "value": "remarkably lessened"}, {"measurement": "intracellular radioactivity released into the supernatant", "setting": "[2]; within 60 min after medium replacement, specific uptake", "value": "Approximately 71%"}, {"measurement": "Biodistribution of radioactivity, Blood", "setting": "[3]; 10 min post-injection", "value": "1.28 (0.13)* percent injected dose per gram tissue"}, {"measurement": "Biodistribution of radioactivity, Blood", "setting": "[3]; 1 h post-injection", "value": "1.04 (0.10)* percent injected dose per gram tissue"}, {"measurement": "Biodistribution of radioactivity, Blood", "setting": "[3]; 3 h post-injection", "value": "0.43 (0.09)** percent injected dose per gram tissue"}, {"measurement": "Biodistribution of radioactivity, Blood", "setting": "[3]; 24 h post-injection", "value": "0.00 (0.00)* percent injected dose per gram tissue"}, {"measurement": "Biodistribution of radioactivity, Brain", "setting": "[3]; 10 min post-injection", "value": "5.14 (0.50)* percent injected dose per gram tissue"}, {"measurement": "Biodistribution of radioactivity, Brain", "setting": "[3]; 1 h post-injection", "value": "1.04 (0.08)* percent injected dose per gram tissue"}, {"measurement": "Biodistribution of radioactivity, Brain", "setting": "[3]; 3 h post-injection", "value": "0.22 (0.02)* percent injected dose per gram tissue"}, {"measurement": "Biodistribution of radioactivity, Brain", "setting": "[3]; 24 h post-injection", "value": "0.00 (0.00)* percent injected dose per gram tissue"}, {"measurement": "Biodistribution of radioactivity, Heart", "setting": "[3]; 10 min post-injection", "value": "3.57 (0.40)* percent injected dose per gram tissue"}, {"measurement": "Biodistribution of radioactivity, Heart", "setting": "[3]; 1 h post-injection", "value": "0.78 (0.05)* percent injected dose per gram tissue"}, {"measurement": "Biodistribution of radioactivity, Heart", "setting": "[3]; 3 h post-injection", "value": "0.27(0.00)** percent injected dose per gram tissue"}, {"measurement": "Biodistribution of radioactivity, Heart", "setting": "[3]; 24 h post-injection", "value": "0.01 (0.01)* percent injected dose per gram tissue"}, {"measurement": "Biodistribution of radioactivity, Intestine", "setting": "[3]; 10 min post-injection", "value": "5.26 (0.61)* percent injected dose per gram tissue"}, {"measurement": "Biodistribution of radioactivity, Intestine", "setting": "[3]; 1 h post-injection", "value": "7.96 (0.72)* percent injected dose per gram tissue"}, {"measurement": "Biodistribution of radioactivity, Intestine", "setting": "[3]; 3 h post-injection", "value": "4.84 (0.95) percent injected dose per gram tissue"}, {"measurement": "Biodistribution of radioactivity, Intestine", "setting": "[3]; 24 h post-injection", "value": "0.14 (0.02)* percent injected dose per gram tissue"}, {"measurement": "Biodistribution of radioactivity, Kidney", "setting": "[3]; 10 min post-injection", "value": "35.01 (2.83)* percent injected dose per gram tissue"}, {"measurement": "Biodistribution of radioactivity, Kidney", "setting": "[3]; 1 h post-injection", "value": "15.30 (1.80) percent injected dose per gram tissue"}, {"measurement": "Biodistribution of radioactivity, Kidney", "setting": "[3]; 3 h post-injection", "value": "4.89 (0.87)** percent injected dose per gram tissue"}, {"measurement": "Biodistribution of radioactivity, Kidney", "setting": "[3]; 24 h post-injection", "value": "0.04 (0.01)* percent injected dose per gram tissue"}, {"measurement": "Biodistribution of radioactivity, Liver", "setting": "[3]; 10 min post-injection", "value": "7.82 (0.32)* percent injected dose per gram tissue"}, {"measurement": "Biodistribution of radioactivity, Liver", "setting": "[3]; 1 h post-injection", "value": "9.80 (0.94)** percent injected dose per gram tissue"}, {"measurement": "Biodistribution of radioactivity, Liver", "setting": "[3]; 3 h post-injection", "value": "2.81 (0.33)* percent injected dose per gram tissue"}, {"measurement": "Biodistribution of radioactivity, Liver", "setting": "[3]; 24 h post-injection", "value": "0.06 (0.03)* percent injected dose per gram tissue"}, {"measurement": "Biodistribution of radioactivity, Lung", "setting": "[3]; 10 min post-injection", "value": "9.74 (1.59)* percent injected dose per gram tissue"}, {"measurement": "Biodistribution of radioactivity, Lung", "setting": "[3]; 1 h post-injection", "value": "1.85 (0.18)* percent injected dose per gram tissue"}, {"measurement": "Biodistribution of radioactivity, Lung", "setting": "[3]; 3 h post-injection", "value": "0.63 (0.11)* percent injected dose per gram tissue"}, {"measurement": "Biodistribution of radioactivity, Lung", "setting": "[3]; 24 h post-injection", "value": "0.01 (0.02)* percent injected dose per gram tissue"}, {"measurement": "Biodistribution of radioactivity, Muscle", "setting": "[3]; 10 min post-injection", "value": "2.20 (0.58) percent injected dose per gram tissue"}, {"measurement": "Biodistribution of radioactivity, Muscle", "setting": "[3]; 1 h post-injection", "value": "0.45 (0.03)* percent injected dose per gram tissue"}, {"measurement": "Biodistribution of radioactivity, Muscle", "setting": "[3]; 3 h post-injection", "value": "0.26 (0.10) percent injected dose per gram tissue"}, {"measurement": "Biodistribution of radioactivity, Muscle", "setting": "[3]; 24 h post-injection", "value": "0.01 (0.01)* percent injected dose per gram tissue"}, {"measurement": "Biodistribution of radioactivity, Pancreas", "setting": "[3]; 10 min post-injection", "value": "25.04 (2.40)* percent injected dose per gram tissue"}, {"measurement": "Biodistribution of radioactivity, Pancreas", "setting": "[3]; 1 h post-injection", "value": "12.80 (0.97)* percent injected dose per gram tissue"}, {"measurement": "Biodistribution of radioactivity, Pancreas", "setting": "[3]; 3 h post-injection", "value": "2.94 (0.49)* percent injected dose per gram tissue"}, {"measurement": "Biodistribution of radioactivity, Pancreas", "setting": "[3]; 24 h post-injection", "value": "0.01 (0.01)* percent injected dose per gram tissue"}, {"measurement": "Biodistribution of radioactivity, Spleen", "setting": "[3]; 10 min post-injection", "value": "8.11 (1.24) percent injected dose per gram tissue"}, {"measurement": "Biodistribution of radioactivity, Spleen", "setting": "[3]; 1 h post-injection", "value": "1.84 (0.11)* percent injected dose per gram tissue"}, {"measurement": "Biodistribution of radioactivity, Spleen", "setting": "[3]; 3 h post-injection", "value": "0.60 (0.12)* percent injected dose per gram tissue"}, {"measurement": "Biodistribution of radioactivity, Spleen", "setting": "[3]; 24 h post-injection", "value": "0.01 (0.02)* percent injected dose per gram tissue"}, {"measurement": "Biodistribution of radioactivity, Stomach", "setting": "[3]; 10 min post-injection", "value": "1.18 (0.36) percent injected dose"}, {"measurement": "Biodistribution of radioactivity, Stomach", "setting": "[3]; 1 h post-injection", "value": "0.62 (0.18) percent injected dose"}, {"measurement": "Biodistribution of radioactivity, Stomach", "setting": "[3]; 3 h post-injection", "value": "0.55 (0.25) percent injected dose"}, {"measurement": "Biodistribution of radioactivity, Stomach", "setting": "[3]; 24 h post-injection", "value": "0.03 (0.02)* percent injected dose"}, {"measurement": "Biodistribution of radioactivity, Tumor", "setting": "[3]; 10 min post-injection", "value": "9.55 (0.64)** percent injected dose per gram tissue"}, {"measurement": "Biodistribution of radioactivity, Tumor", "setting": "[3]; 1 h post-injection", "value": "5.45 (0.70) percent injected dose per gram tissue"}, {"measurement": "Biodistribution of radioactivity, Tumor", "setting": "[3]; 3 h post-injection", "value": "2.57 (0.41) percent injected dose per gram tissue"}, {"measurement": "Biodistribution of radioactivity, Tumor", "setting": "[3]; 24 h post-injection", "value": "0.06 (0.04)** percent injected dose per gram tissue"}, {"measurement": "percent of intact (+)-[^125I]IV-OH, Blood", "setting": "[4]; 10 min post-injection", "value": "17.0 (9.0) percent"}, {"measurement": "percent of intact (+)-[^125I]IV-OH, Blood", "setting": "[4]; 1 h post-injection", "value": "0.9% and 0.9 (1.0) percent"}, {"measurement": "percent of intact (+)-[^125I]IV-OH, Brain", "setting": "[4]; 10 min post-injection", "value": "96.4 (1.1) percent"}, {"measurement": "percent of intact (+)-[^125I]IV-OH, Brain", "setting": "[4]; 1 h post-injection", "value": "73.7 (8.4) percent"}, {"measurement": "percent of intact (+)-[^125I]IV-OH, Kidney", "setting": "[4]; 10 min post-injection", "value": "19.8 (3.7) percent"}, {"measurement": "percent of intact (+)-[^125I]IV-OH, Kidney", "setting": "[4]; 1 h post-injection", "value": "2.6% and 2.6 (1.8) percent"}, {"measurement": "percent of intact (+)-[^125I]IV-OH, Liver", "setting": "[4]; 10 min post-injection", "value": "5.4 (7.4) percent"}, {"measurement": "percent of intact (+)-[^125I]IV-OH, Liver", "setting": "[4]; 1 h post-injection", "value": "0.1% and 0.1 (0.2) percent"}, {"measurement": "percent of intact (+)-[^125I]IV-OH, Tumor", "setting": "[4]; 10 min post-injection", "value": "93.1 (4.3) percent"}, {"measurement": "percent of intact (+)-[^125I]IV-OH, Tumor", "setting": "[4]; 1 h post-injection", "value": "70.2 (5.6) percent"}]}]}
